Source: article PMC4707489, “A novel cell-penetrating peptide suppresses breast tumorigenesis by inhibiting β-catenin/LEF-1 signaling” (Scientific Reports, 2016)

Experiments:
Format in all cases: cell-based, human
MCF-7 cells = test: TUNEL apoptosis assay; conditions: MCF-7, 100 μmol/l, vs control or TAT-NLS-BLBD-6m (Fig. 3b)
Method: (§1) MCF-7 and MDA-MB-231 cells were cultured in 35-mm plates with cover slides on the plate bottom and treated with NLS-BLBD-6, TAT-BLBD-6 and TAT-NLS-BLBD-6 peptide for 24 hr. Subsequently, cells were fixed with 4% paraformaldehyde and permeabilized with 0.2% Triton X-100 for 20 min at room temperature. For the immunofluorescence assay, the slides were incubated with primary antibodies, anti-β-catenin (Epitomics) and anti-TAT (Santa Cruz), for 6 hr, and Alexa-488 fluorescence secondary antibodies for 1 hr. DAPI (Sigma, St Louis, MO) was used to stain the nucleus for 1 min at room temperature. For the TUNEL assay, apoptosis was analyzed by the Apo-BrdU-red DNA Fragmentation Assay kit, according to the manufacturer’s protocol (BioVision, Mountain View, CA, USA). For the PLA, the protein–protein interaction assay was analyzed by Duolink® using PLA® Technology, according to the manufacturer’s protocol (Olink Bioscience, Uppsala, Sweden). Briefly, the slides were incubated with primary antibodies, anti-β-catenin (Epitomics) and anti-TAT (Santa Cruz), and secondary antibodies, Duolink PLA Rabbit MINUS and PLA Mouse PLUS proximity probes. Finally, the proximity ligation was performed by the Duolink detection reagent kit (Olink Bioscience). The immunofluorescence image and TUNEL staining was photographed by a microscope (IX-71, Olympus, Tokyo, Japan).

MDA-MB-231 cells = test: TUNEL apoptosis assay; conditions: MDA-MB-231, 100 μmol/l, vs control or TAT-NLS-BLBD-6m (Fig. 3b)
Method: as §1

ZR-75-30 cells = test: Cell growth (CCK-8), HER2 positive cell line; conditions: ZR-75-30, 100 μmol/l, CCK-8 at 48 hr post-transfection (Fig. 6f)
Method: Cell growth was analyzed using 2-(2-methoxy-4-nitrophenyl)-3-(4-nitroph enyl)-5-(2,4-disulfophenyl)-2H-tetrazolium, monosodium salt, and the Cell Counting Kit-8 (CCK-8, Sigma). […] After culturing for another 48 hr, cell growth was analyzed by CCK-8 and the optical density was detected at 450 nm. The growth ratio was normalized to the cells without treatment.

In the case of H-TAT-NLS-ATDEMIPF-NH2 [TAT-NLS-BLBD-6], the “apoptosis (TUNEL, BrdU binding and DNA fragmentation)” value (MCF-7 cells) is reported as “increased the effect of binding with BrdU and DNA fragmentation”, the “apoptosis (TUNEL, BrdU binding and DNA fragmentation)” value (MDA-MB-231 cells) is reported as “increased the effect of binding with BrdU and DNA fragmentation” and the cell growth (ZR-75-30 cells) is reported as “inhibits the growth”.
